Reference: publication PMC11858653, “Design, Synthesis and Bioactive Evaluation of Topo I/c-MYC Dual Inhibitors to Inhibit Oral Cancer via Regulating the PI3K/AKT/NF-κB Signaling Pathway” (Molecules, 2025)

Legend:
ACHN = assay: MTT antiproliferative assay, ACHN; assay type: cell-based, human; conditions: 48 h, mean ± SD
Experimental: (§1) Having evaluated their Topo I inhibitory activity, the antiproliferative activity of the target compounds against some common human cancer cell lines (NCI-H460, A549, ACHN, Cal27 and MGC-803) and one normal cell line (SV-HUC-1) was tested via an MTT assay. TPT, the first Topo I inhibitor approved in clinics, and cisplatin (CDDP), a commonly selected anticancer drug for treating head and neck malignancies, were used as the positive controls.
(§2) Human oral cancer Cal27 cells were seeded in 96-well plates and incubated overnight in 180 μL of medium containing 10% Fetal Bovine Serum (Gibco, San Francisco, CA, USA). […] Then, 10 μL of 5 mg/mL MTT solution was added to each well and incubated at 37 °C for 4 h. After 4 h of incubation at 37 °C, the MTT-containing medium was removed and DMSO was added to each well and the absorbance at 570 nm and 630 nm was measured using a microplate reader (CYTATION 3, Burton, Westwood, NJ, USA). Survival/% = (mean OD of experimental group/mean OD of control group) × 100%. Each test was repeated at least three times.

Cal27 = assay: MTT antiproliferative assay, Cal27; assay type: cell-based, human; conditions: 48 h, mean ± SD
Experimental: as §1, §2

MGC-803 = assay: MTT antiproliferative assay, MGC-803; assay type: cell-based, human; conditions: 48 h, mean ± SD
Experimental: as §1, §2

NCI-H460 = assay: MTT antiproliferative assay, NCI-H460; assay type: cell-based, human; conditions: 48 h, mean ± SD
Experimental: as §1, §2

[1] = tested on: human oral cancer Cal27 xenograft tumor; assay: In vivo antitumor activity, Cal27 xenograft; design: species or system BALB/c nude mice; conditions: 2 mg/kg i.p. once every other day, 21 days
Experimental: Nude mouse organ and tumor tissues fixed with neutral formalin solution were paraffin-embedded according to the conventional processing method. Sections were cut to a thickness of approximately 5 μm, placed on glass slides and dewaxed in an oven at 60 °C, stained for H&E and immunohistochemistry and finally visualized with the Cytation 5 imaging system.
For this assay, 130 SPF-grade BALB/c mice (female, 4–6 weeks old, 18–20 g) were obtained from Chang Zhou Cavens Laboratory Animal Ltd. (Changzhou, China). The in vivo activity experiments were commissioned by Nanjing OG Pharmaceuticals, Co., Ltd. (Nanjing, China) All mice were housed in plastic cages, fed, and watered under standard conditions and air filtration (22 ± 2 °C; 12 h light/dark cycles). Under aseptic conditions, human oral cancer Cal27 cells were inoculated subcutaneously in the right axilla of BALB/c nude mice. When the tumors had grown to about 85 mm^3, 24 […] mice with good growth status and good homogeneity of tumor size were selected and randomly divided into the following four groups of six mice each: (1) the model group; (2) the low-dose group; (3) the high-dose group; and (4) the positive drug group. The drug dose in the low-dose group was 10 mg/kg, which was injected intraperitoneally once every other day, for the duration of 21 days of administration; the drug dose in the high-dose group was 20 mg/kg, which was injected intraperitoneally once every other day, for the duration of 21 days of administration; and the drug dose in the cisplatin group was 2 mg/kg, which was injected intraperitoneally once every other day, for the duration of 21 days of administration. Normal tissues of the heart, liver, spleen, lung and kidney and half of the tumor tissues were fixed with 4% formalin solution and embedded in paraffin for histological analysis; the other half of the tumor tissues were preserved in liquid nitrogen, and the supernatant was extracted after milling the tissues and detected by Western blot.

A549 = assay: MTT antiproliferative assay, A549; assay type: cell-based, human; conditions: 48 h, mean ± SD
Experimental: as §1, §2

Cal27 cells = assay: MTT cell survival with autophagy inhibitor CQ; assay type: cell-based, human; conditions: Cal27, 20 μM alone
Experimental: Meanwhile, to further confirm that compound 7be could induce autophagic death in Cal27 cells, we used a classical autophagy inhibitor, chloroquine (CQ), to evaluate the role of autophagy in compound 7be-mix-induced cell death.
Human oral cancer Cal27 cells were seeded in 96-well plates and incubated overnight in 180 μL of medium containing 10% Fetal Bovine Serum (Gibco, San Francisco, CA, USA). On the following day, compounds at final concentrations of 2.5, 5, 10 and 20 μM were added to each well and incubated for 48 h. Then, 10 μL of 5 mg/mL MTT solution was added to each well and incubated at 37 °C for 4 h. After 4 h of incubation at 37 °C, the MTT-containing medium was removed and DMSO was added to each well and the absorbance at 570 nm and 630 nm was measured using a microplate reader (CYTATION 3, Burton, Westwood, NJ, USA). Survival/% = (mean OD of experimental group/mean OD of control group) × 100%. Each test was repeated at least three times.

| SMILES | IC50 (ACHN) | IC50 (Cal27) | IC50 (MGC-803) | IC50 (NCI-H460) | relative tumor proliferation rate [1] | tumor inhibition rate / tumor growth inhibition (TGI) [1] | tumor inhibition rate / tumor growth inhibition (TGI) ([1]; listed as cisplatin) | IC50 (A549) | cell survival rate versus control group (Cal27 cells; 24 h) | cell survival rate (Cal27 cells; 48 h) |
| --- | --- | --- | --- | --- | --- | --- | --- | --- | --- | --- |
| [NH2][Pt]([NH2])([Cl])[Cl] [CDDP, cisplatin, reference compound] | 12.4 ± 1.31 µM | 8.81 ± 1.73 µM | 12.3 ± 0.8 µM | 12.2 ± 1.01 µM | 39.8% | 59.44% | 59.4% | 8.69 ± 1.05 µM | – | – |
| CCN(CC)CCCC(C)Nc1ccnc2cc(Cl)ccc12 (stereo not shown) [CQ, chloroquine] | – | – | – | – | – | – | – | – | not significantly different | more than 80% |
